The subject of one data set is S. aureus ATCC25923. Type of data set: cell-based, Staphylococcus aureus. How it is done: (§1) The antimicrobial activity of peptides was determined by the microbroth dilution method ([Zhang et al., 2014]). The bacterial strains were incubated in Mueller-Hinton (MH) medium at 28°C or 37°C overnight. Bacteria (1 × 10^5 CFU/mL) were added into 96-well plates, followed by the addition of serial dilutions of peptides (from 0.0625 to 128 μg/mL). The plates were incubated at 37°C for 18–24 h. The minimal inhibitory concentration (MIC) value was determined as the lowest peptide concentration at which no bacterial growth was observed.

The next data set concerns S. aureus ATCC546. Type of data set: cell-based, Staphylococcus aureus. How it is done:
as §1

Data set [1] deals with inner membrane of E. tarda. Put plainly: Inner membrane penetration, PI staining by flow cytometry. Type of data set: cell-based, Edwardsiella tarda. The following applies: 1× MIC, 5–30 min at 37°C, 1 × 10^8 CFU/mL. How it is done: Mid-log phase E. tarda cells (1 × 10^8 CFU/mL) were incubated with or without 1× MIC peptides solutions at 37°C for 5, 15, and 30 min, respectively. After washing twice with PBS, bacterial cells were then incubated with 50 μg/mL propidium iodide (PI) for 15 min and analyzed using a FACS Calibur Flow Cytometer (BD, United States) ([Stearns-Kurosawa et al., 2011]).
Background: Flow cytometry measures light scatter and fluorescence of single cells or particles in a stream.

The format of data set [2] is cell-based, Streptococcus enteritidis. How it is done:
as §1

For another data set, the system named is E. coli CVCC25922. Type of data set: cell-based, Escherichia coli. How it is done: as §1
Another data set has as its system E. coli CVCC1515. Type of data set: cell-based, Escherichia coli. How it is done: as §1
The subject of the next data set is S. hyicus 15095. Type of data set: cell-based, Staphylococcus hyicus. How it is done:
as §1

Another data set has as its system S. pullorum CVCC1789. Type of data set: cell-based, Salmonella pullorum. How it is done:
as §1

In another data set the test system is murine erythrocytes. Type of data set: cell-based, mouse. How it is done:
The hemolysis of peptides was evaluated by determining the amount of hemoglobin that was released from fresh mouse erythrocytes ([Flamm et al., 2019]). The blood cells were washed three times with 10 mM PBS (pH 7.4) and centrifuged for 10 min (1,500 rpm). Erythrocyte solution (8%, v/v) was mixed with peptide solutions (1:1) and incubated for 1 h at 37°C. The mixture was then centrifuged for 5 min (1,500 rpm), and the absorbance of supernatants was measured at 540 nm. Values of 0 and 100% hemolysis were determined in PBS and 0.1% triton X-100, respectively. The hemolysis of peptides was calculated using the following formula: Hemolysis (%) = [(Abs treated sample – Abs negative control)/(Abs positive control – Abs negative control)] × 100.

Data set [3] relates to Gram-negative and Gram-positive bacteria (ALL). Nature of the data set: Geometric mean of MICs and therapeutic index. Type of data set: cell-based. The note with it: for GM ALL: geometric mean (GM) of MICs, all strains; for TI ALL: therapeutic index (TI), cell selectivity. How it is done:
as §1
(§2) The geometric mean (GM) of MICs of peptides against Gram-negative and Gram-positive bacteria was calculated, and the result was shown in Table 3. […] For Gram-negative bacteria, the TI value of GUON6NH2 (53.33) was very close to N6NH2 (58.18), while for positive bacteria, the TI value of GUON6NH2 (12.8) was slightly higher than that of N6NH2 (12.31), indicating their huge therapeutic potential. For Gram-positive bacteria, DN6NH2 had the highest TI value and the best therapeutic potential.

The test system of another data set is Gram-negative bacteria. Put plainly: Geometric mean of MICs and therapeutic index. Type of data set: cell-based. The following applies: for GM Gram-negative bacteria: geometric mean (GM) of MICs against Gram-negative bacteria; for TI Gram-negative bacteria: therapeutic index (TI), cell selectivity. How it is done: as §1, §2
Another data set deals with Gram-positive bacteria. Nature of the data set: Geometric mean of MICs and therapeutic index. Type of data set: cell-based. The note with it: for GM Gram-positive bacteria: geometric mean (GM) of MICs against Gram-positive bacteria; for TI Gram-positive bacteria: therapeutic index (TI), cell selectivity. How it is done:
as §1, §2

The next data set deals with S. typhimurium ATCC14028. Type of data set: cell-based, Salmonella typhimurium. How it is done: as §1
A further data set concerns Edwardsiella tarda. Type of data set: cell-based. How it is done: as §1
The subject of a further data set is Escherichia coli CVCC195. Type of data set: cell-based. How it is done:
as §1

Data set [4] has as its system Staphylococcus aureus ATCC43300. Type of data set: cell-based. How it is done:
as §1

Data set [5] deals with Salmonella pullorum CVCC1802. Type of data set: cell-based. How it is done:
as §1

The subject of data set [6] is Staphylococcus hyicus 437-2. Type of data set: cell-based. How it is done:
as §1

Data set [7] deals with Salmonella typhimurium CVCC533. Type of data set: cell-based. The note with it: murium CVCC533. How it is done:
as §1

For a further data set, the system named is LPS. Put plainly: LPS binding, BODIPY-TR-cadaverine (BC) probe displacement. The note with it: 0.5 μM LPS, 5 μM BC, Tris buffer pH 7.4; peptides 0.049 to 50 μM. How it is done:
The BODIPY’-TR-cadaverine (BC) probe was used to determine the ability of peptides to bind to LPS ([Wang et al., 2020]). 0.5 μM LPS was incubated with 5 μM BC in […] Tris buffer (pH 7.4) for 4 h at 37°C. Subsequently, the peptides were added into the mixture and the final concentrations of peptides ranged from 0.049 to 50 μM. Ampicillin was used as the negative control. Changes in fluorescence were measured by a fluorescence spectrophotometry at room temperature (excitation/emission, 580/620 nm).

A further data set relates to E. tarda. Nature of the data set: SEM and TEM morphology. Type of data set: cell-based, Edwardsiella tarda. The note with it: 4× MIC, 2 h. How it is done:
To further characterize the bactericidal effects of the peptides, scanning electron microscopy (SEM) and transmission electron microscopy (TEM) were used to visualize morphological changes ([Yang et al., 2019]). E. tarda was cultured to logarithmic growth stage (10^8 CFU/mL) and diluted with 0.01 M PBS (pH 7.4) to OD600 nm = 1. E. tarda cells were treated with 4× MIC peptides at 37°C for 2 h and the untreated cells were used as the control. Briefly, after centrifugation, the bacterial cells were washed three times with 0.1 M PBS (pH 7.2) and fixed overnight at 4°C with 2.5% glutaraldehyde. After washing again, the cells were fixed with 1% osmium tetroxide (OsO4) for 2 h and dehydrated in a graded ethanol series (50%–70%–85%–95% × 2–100%, × 2) for 15 min, respectively. The samples were then dried by CO2, sputtered with gold-palladium, and observed on a QUANTA200 SEM (FEI, Philips, Netherlands).
E. tarda cells were treated peptides before fixation as described above. The bacteria were washed with 0.01 M PBS (pH 7.4) for five times, 7 min each time, and fixed with 1% osmium acid buffer (4°C) for 1 h. After dehydration with a graded acetone series (30%–50%–70%–85%–95%–100% × 3), the cells were immersed in mixtures of acetone and resin (3:1, 1:1 and 1:3, respectively) for 40 min and in a pure epoxy resin overnight. The samples were then embedded in embedding medium and polymerized at 45°C for 3 h and at 65°C for 24 h, respectively. The sections were prepared using an ultramicrotome, stained with 1% uranyl acetate, and visualized by a JEM1400 (JEDL, Tokyo, Japan).

Converted amounts (≈) assume the structure as drawn. Where a SMILES comes first, the peptide text is derived from it. Bridges are numbered along the chain shown (N, C = ends).

We go through three compounds from article PMC7985170, “Marine Peptide-N6NH2 and Its Derivative-GUON6NH2 Have Potent Antimicrobial Activity Against Intracellular Edwardsiella tarda in vitro and in vivo” (Frontiers in Microbiology, 2021).

Usually MIC stands for the smallest concentration in the dilution series that meets the test's criterion for growth inhibition.

On to `CC(C)[C@@H]1NC(=O)CNC(=O)[C@H](CC(N)=O)NC(=O)[C@H](CCCNC(=N)N)NC(=O)[C@H](Cc2ccc(O)cc2)NC(=O)[C@H](C(C)C)NC(=O)[C@@H](NC(=O)[C@@H](NC(=O)[C@H](CC(N)=O)NC(=O)[C@H](Cc2c[nH]c3ccccc23)NC(=O)[C@H](C)NC(=O)[C@H](Cc2ccccc2)NC(=O)CN)C(C)C)CSSC[C@@H](C(=O)N[C@@H](Cc2c[nH]cn2)C(=O)N[C@@H](CCCNC(=N)N)C(=O)N2CCC[C@H]2C(=O)N[C@@H](C)C(=O)N[C@@H](CC(N)=O)C(N)=O)NC(=O)[C@H](C(C)C)NC(=O)[C@H](CCCNC(=N)N)NC1=O` [N6PNH2] (H-GFAWNVCVYRNGVRVCHRPAN-NH2; disulfide 7-16 (inferred); N-terminus assumed), for which the MIC in the data set on S. aureus ATCC25923 is greater than 64 µg/mL; in the data set with S. aureus ATCC546 it was greater than 64 µg/mL; in [2], 2 µg/mL (≈ 0.828 µM); in the data set with E. coli CVCC25922 it was 8 µg/mL (≈ 3.31 µM); in the data set on E. coli CVCC1515 it was 4 µg/mL (≈ 1.66 µM); with S. hyicus 15095, 64 µg/mL (≈ 26.5 µM). The MIC was 16 µg/mL (≈ 6.62 µM) in the data set with S. pullorum CVCC1789; 16 µg/mL (≈ 6.62 µM) against S. typhimurium ATCC14028; 32 µg/mL (≈ 13.2 µM) in the data set on Edwardsiella tarda; 8 µg/mL (≈ 3.31 µM) in the data set with Escherichia coli CVCC195; greater than 64 µg/mL in data set [4]; 8 µg/mL (≈ 3.31 µM) in data set [5]. Besides, the MIC was greater than 64 µg/mL in [6] and 32 µg/mL (≈ 13.2 µM) in data set [7]. The “penetration rate (PI-stained cells)” value in [1] is recorded as 0.42–2.20%. Also, the MHC in the data set on murine erythrocytes was greater than 128 µg/mL. In [3], the “GM ALL” value is 47.33 µg/mL. In addition, the “TI ALL” value in [3] stood at 5.41. For the same compound, the “GM Gram-negative bacteria” value in the data set on Gram-negative bacteria was determined as 13.4 µg/mL. In the data set with Gram-negative bacteria, the “TI Gram-negative bacteria” value is given as 19.1. In the data set on Gram-positive bacteria, the “GM Gram-positive bacteria” value is 115.2 µg/mL. For the same compound, the “TI Gram-positive bacteria” value in the data set on Gram-positive bacteria stood at 2.22. In addition, in the data set with LPS, the “ability to bind to LPS (BC probe displacement)” value (“ability to bind to LPS” for short) is given as “V112N6NH2 > GUON6NH2 > N6NH2 > DN6NH2 > N6PNH2”.

As for `CC(C)[C@H]1NC(=O)CNC(=O)[C@@H](CC(N)=O)NC(=O)[C@@H](CCCNC(=N)N)NC(=O)[C@@H](Cc2ccc(O)cc2)NC(=O)[C@@H](C(C)C)NC(=O)[C@H](NC(=O)[C@H](NC(=O)[C@@H](CC(N)=O)NC(=O)[C@@H](Cc2c[nH]c3ccccc23)NC(=O)[C@@H](C)NC(=O)[C@@H](Cc2ccccc2)NC(=O)CN)C(C)C)CSSC[C@H](C(=O)N[C@H](Cc2c[nH]cn2)C(=O)N[C@H](CCCNC(=N)N)C(=O)N[C@H](CCCNC(=N)N)C(=O)N[C@H](C)C(=O)N[C@H](CC(N)=O)C(N)=O)NC(=O)[C@@H](C(C)C)NC(=O)[C@@H](CCCNC(=N)N)NC1=O` [DN6NH2], the “morphological changes by SEM” value with E. tarda is “no significant change in the bacterial cell structures”. Besides, the minimal inhibitory concentration (MIC) worked out at 8 µg/mL (≈ 3.23 µM) against S. aureus ATCC25923; 16 µg/mL (≈ 6.46 µM) against S. aureus ATCC546; 2 µg/mL (≈ 0.808 µM) in [2]; 8 µg/mL (≈ 3.23 µM) with E. coli CVCC25922; 4 µg/mL (≈ 1.62 µM) in the data set with E. coli CVCC1515; 4 µg/mL (≈ 1.62 µM) in the data set on S. hyicus 15095. Further, the MIC against S. pullorum CVCC1789 was 16 µg/mL (≈ 6.46 µM); against S. typhimurium ATCC14028, 8 µg/mL (≈ 3.23 µM); against Edwardsiella tarda, 8 µg/mL (≈ 3.23 µM); in the data set with Escherichia coli CVCC195, 8 µg/mL (≈ 3.23 µM); in [4], 4 µg/mL (≈ 1.62 µM); in data set [5], 8 µg/mL (≈ 3.23 µM). Moreover, the MIC is 8 µg/mL (≈ 3.23 µM) in data set [6] and 16 µg/mL (≈ 6.46 µM) in data set [7]. In addition, the “penetration rate (PI-stained cells)” value in data set [1] is on record as 1.3–16.1%. The compound also came in with an MHC in the data set on murine erythrocytes greater than 128 µg/mL. For the same compound, in data set [3], the “GM ALL” value was determined as 8.13 µg/mL. Further, the “TI ALL” value in data set [3] is on record as 31.49. The “GM Gram-negative bacteria” value in the data set with Gram-negative bacteria is 8.2 µg/mL. Further, the “TI Gram-negative bacteria” value with Gram-negative bacteria is recorded as 31.22. In addition, the “GM Gram-positive bacteria” value in the data set with Gram-positive bacteria amounted to 8 µg/mL. The “TI Gram-positive bacteria” value in the data set on Gram-positive bacteria is given as 32. Moreover, the “ability to bind to LPS” value with LPS was “V112N6NH2 > GUON6NH2 > N6NH2 > DN6NH2 > N6PNH2”.

Take `CC1(C)S[C@@H]2[C@H](NC(=O)[C@H](N)c3ccccc3)C(=O)N2[C@H]1C(=O)O` [ampicillin, Ampicillin, reference compound]: the “ability to bind to LPS” value in the data set with LPS was “did not replace BC probe to bind to LPS”.
